Results from article PMC8566951, “Antifungal Activity of ToAP2D Peptide Against Sporothrix globosa” (Frontiers in Bioengineering and Biotechnology, 2021).
No end group written: not given here.

Assays:
S. globosa [1] = test: Inhibition zone test (paper disk); type: cell-based, Sporothrix globosa; settings: 6 µL on 5 mm paper disk, 37°C, 72 h, repeated three times, 5.00 = disk diameter
Experimental: S. globosa was collected from clinical patients diagnosed with cutaneous sporotrichosis at our hospital. All strains were identified as S. globosa using mycelial-to-yeast phase conversion culture and molecular identification methods. All isolates were grown on Sabouraud’s dextrose agar. After 7 days of culture, the fungal colonies were transferred to brainheart infusion broth and incubated in a rotary shaker (150 rpm/min) at 37°C for another 7 days. S. globosa was centrifuged and resuspended in PBS and diluted to 1.0 × 10^8 cfu/ml.
The antifungal activity of ToAP2A, ToAP2C, and ToAP2D against S. globosa was analyzed using the inhibition zone test. S. globosa was collected and diluted to 1.0 × 10^8 cfu/ml with a hemocytometer. We then evenly inoculated on brainheart infusion broth agar plates with 50 µL aliquots of the dilution. Paper disks with 5 mm diameter were pasted on the surface of the solid culture medium after high-pressure sterilization. ToAP2A, ToAP2C, and ToAP2D (4/2/1 mg/ml) and the control sample (physiological saline with a concentration of 0.9%) were dripped onto the filter paper with 6 µL, respectively, and cultured in 37°C for 72 h to observe whether there is a zone of inhibition. The diameter of the inhibition zone was measured and recorded with a vernier caliper. The above steps were repeated three times to calculate the average value and standard deviation of the inhibition zone diameter of each sample.

S. globosa [2] = test: S. globosa footpad infection in mice, skin lesion area; type: in vivo, BALB/c mice; settings: itraconazole gavage 60 mg/kg daily from Day 10, mean ± SD, n = 6
Experimental: The animal protocol was approved by the Institutional Ethics Committee for Animal Use in Research, and our animal care followed Animal Care guidelines of the Jilin University. Mice were randomly divided into study group (n = 51) and the healthy control (HC) group (n = 6). Mice in the study group were injected with 0.05 ml S. globosa suspension (1 × 10^8 cfu/ml) on their footpads after alcohol cotton ball sterilization. The condition of the skin was monitored daily. […] After that, CO2 lattice laser was used to promote ToAP2D absorption, and the mice of the study group were further divided into infection group (n = 12), laser group (n = 12), laser + ToAP2D group (n = 12), and itraconazole group (n = 12), and the antifungal treatments were given subsequently.
In the laser group, the injection feet were subjected to CO2 lattice laser 10,600 nm irradiation at room temperature with an irradiation energy density of 120 mJ/mm^2. The laser scanning area was 15 mm × 15 mm with a lattice density of 0.3 mm and 25.0% coverage rate. The laser treatment was administered every […] on Day 10, 14, 18, and 22. In the laser + ToAP2D group, mice were subjected to CO2 lattice laser irradiation with the same parameters in the laser group to assist the absorption of ToAP2D. Almost immediately after laser irradiation, the antibacterial peptide ToAP2D (4 mg/ml, diluted with 0.9% normal saline) was repeatedly rolled onto the laser-irradiated part of the footpad, until it was completely absorbed every day. In the itraconazole group, mice were gavaged with itraconazole at a dose of 60 mg/kg daily. The size of the footpads of mice was measured every 3 days and analyzed using Photoshop. On Day 18 and 26, six mice in each group were sacrificed, and their feet tissues were collected for further skin histology and immunohistochemistry studies.

[3] = Serum stability by inhibition zone test; type: in vitro ADME; settings: human serum diluted 1:1 with 0.9% normal saline, ToAP2D 4 mg/ml, 10 h at 37°C, read-out inhibition zone after 24 h
Experimental: The stability of ToAP2D in human serum was analyzed using the inhibition zone test. 5 ml of healthy human blood (from the physical examination center of our hospital) was extracted using a sterile syringe, stored at room temperature for 1 h, and then stored at 4°C overnight. After 24 h, the blood was centrifuged at 1,000 rpm/min for 10 min, and 50 µL of serum in the supernatant was gently sucked out with a pipette gun. The serum was diluted with 50 µL of 0.9% normal saline, and then, the antimicrobial peptide ToAP2D was dissolved in the diluted serum.
To determine the stability of ToAP2D in human serum, ToAP2D (final concentration 4 mg/ml) was mixed with the diluted serum for 0, 0.5, 1, 2, 4, 6, 8, and 10 h at 37°C, respectively. In brief, S. globosa was inoculated on brainheart infusion broth agar plates, 5.0 mm paper disks were placed on top, and 6 µL aliquots of the serumpeptide mixture were added to the paper disks at each incubation time point. After 24 h of incubation, the inhibitory zones against S. globosa were measured and recorded.

[4] = Acute toxicity, HE staining of major organs; type: in vivo; settings: BALB/c mice, 60 mg/kg tail vein, organs after 24 h, n = 5
Experimental: To examine their toxicity, an in vivo animal study was performed. The 10 healthy BALB/c mice were randomly divided into ToAP2D group (n = 5) and the control group (n = 5). The mice in the ToAP2D group were injected with ToAP2D through the tail vein at a dose of 60 mg/kg, and the control group mice were injected with the same volume of normal saline. After 24 h, the major organs (e.g., brain, heart, liver, and kidney) of the mice were excised and fixed in 10% buffered formalin for 1 day. The tissues were then embedded in paraffin and sectioned for hematoxylin and eosin (HE) staining.

S. globosa [5] = test: Minimal inhibitory concentration, microdilution assay; type: cell-based, Sporothrix globosa; settings: brainheart infusion broth, 1 × 10^8 cfu/ml, 37°C, 7 days, at least three experiments
Experimental: The minimal inhibitory concentration (MIC) of ToAP2D against S. globosa was determined using the microdilution assay. In brief, twofold serial dilutions of ToAP2D were prepared in 96-well polystyrene microplates to a final volume of 100 µL. Final concentrations of ToAP2D ranged from 5 mg/ml to 0.62 μg/ml. In each plate, wells were included without peptide as control. Then, 100 µL of the liquid medium (brainheart infusion broth) was added to each well with a final concentration of 1 × 10^8 cfu/ml for S. globosa. The plates were incubated at 37°C for 7 days. In addition, 20 µL of culture from each well was inoculated on the brainheart solid medium and cultured in a constant temperature incubator at 37°C for 7 days to observe the growth of colonies. […] The experiments were performed at least three times on separate dates.

Candida albicans = settings: ref Guilhelmelli et al., 2016; cited from earlier work
Excerpt: (§1) As the biological characteristics of S. globosa are very similar to C. albicans, we then use ToAP2structure as a template, through reasonable molecular design and modification, to study the inhibitory e ...

[6] = ref Guilhelmelli et al., 2016; cited from earlier work
Excerpt: as §1

GSKLIPGVMKLFSKK [ToAP2A]
Inhibition zone (mm) mean ± standard deviation (SD) (S. globosa [1]; 1 mg/ml): 5.00 ± 0.00 mm | Inhibition zone (mm) mean ± standard deviation (SD) (S. globosa [1]; 2 mg/ml): 6.59 ± 0.34 mm | Inhibition zone (mm) mean ± standard deviation (SD) (S. globosa [1]; 4 mg/ml): 9.23 ± 0.34 mm

GAKLIPGVMKLFRKK [ToAP2C]
Inhibition zone (mm) mean ± standard deviation (SD) (S. globosa [1]; 1 mg/ml): 5.00 ± 0.00 mm | Inhibition zone (mm) mean ± standard deviation (SD) (S. globosa [1]; 2 mg/ml): 6.37 ± 0.27 mm | Inhibition zone (mm) mean ± standard deviation (SD) (S. globosa [1]; 4 mg/ml): 8.12 ± 0.33 mm

CCC(C)n1ncn(-c2ccc(N3CCN(c4ccc(OCC5COC(Cn6cncn6)(c6ccc(Cl)cc6Cl)O5)cc4)CC3)cc2)c1=O (stereo not shown) [Itraconazole, itraconazole]
Skin lesion area (mm^2) (S. globosa [2]; Day14): 27.82 ± 2.84 ^** mm^2 | Skin lesion area (mm^2) (S. globosa [2]; Day18): 21.47 ± 0.92 ^*** mm^2 | Skin lesion area (mm^2) (S. globosa [2]; Day22): 14.94 ± 2.93 ^** mm^2 | Skin lesion area (mm^2) (S. globosa [2]; Day26): 11.81 ± 0.85 mm^2

GDKLIPGVMKLFRKK [ToAP2D]
Inhibition zone (mm) mean ± standard deviation (SD) (S. globosa [1]; 1 mg/ml): 5.00 ± 0.00 mm | Inhibition zone (mm) mean ± standard deviation (SD) (S. globosa [1]; 2 mg/ml): 6.86 ± 0.25 mm | Inhibition zone (mm) mean ± standard deviation (SD) (S. globosa [1]; 4 mg/ml): 11.56 ± 0.36 mm | antifungal activity against S. globosa after incubation in serum, compared to the original drug [3]: > 90% | acute toxicity (HE staining of main organs) [4]: no acute toxicity | minimal inhibitory concentration (MIC) (S. globosa [5]): 156.25 µg/mL

FFGTLFKLGSKLIPGVMKLFSKKKER [ToAP2]
growth of Candida albicans (Candida albicans): could inhibit the growth | cytotoxic activity [6]: low cytotoxic | hemolytic activity [6]: low hemolytic
